The supplement of paper PMC10307832

Tests used:
Assay in all cases: relative viability (nuclei count vs DMSO), 5 days (fraction); higher = more cells survive
[1] = compound: C1COCCN1C2=NC(=NC3=C2OC4=C3C=CC=N4)C5=CC(=CC=C5)NC(=O)C6=CN=C(C=C6)N + CC(C)C[C@H](NC(=O)[C@H](Cc1ccccc1)NC(=O)c1cnccn1)B(O)O [Bortezomib] (partner 0.002 µM)
In short: (§1)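 Dosing by pin tool came one day after lung cancer cell lines were seeded in 1536-well plates, using either one drug or a fixed anchor-drug dose plus five library-drug doses (not always all listed) in √10 steps. After 5 days, nuclei were counted on 4× images. Relative viability is treated-well nuclei count divided by vehicle-well nuclei count, and values are medians of duplicate plates.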

[2] = compound: C1COCCN1C2=NC(=NC3=C2OC4=C3C=CC=N4)C5=CC(=CC=C5)NC(=O)C6=CN=C(C=C6)N + C[C@]1(O)C[C@@H](c2nc(-c3ccc4ccc(-c5ccccc5)nc4c3)c3c(N)nccn32)C1 [Linsitinib] (partner 1 µM)
In short: as §1

SGI-1776 + Pemetrexed = compound: CN1CCC(CNc2ccc3ncc(-c4cccc(OC(F)(F)F)c4)n3n2)CC1 [SGI-1776] + Nc1nc2[nH]cc(CCc3ccc(C(=O)N[C@@H](CCC(=O)O)C(=O)O)cc3)c2c(=O)[nH]1 [Pemetrexed] (partner 0.2 µM)
In short: as §1

Entinostat + OSI-027 = compound: Nc1ccccc1NC(=O)c1ccc(CNC(=O)OCc2cccnc2)cc1 [Entinostat] + COc1cccc2cc(-c3nc([C@H]4CC[C@H](C(=O)O)CC4)n4ncnc(N)c34)[nH]c12 [OSI-027] (partner 0.5 µM)
In short: as §1

Cell Line	relative viability ([1]; first compound 0.02 µM)	relative viability ([1]; first compound 0.06325 µM)	relative viability ([1]; first compound 0.2 µM)	relative viability ([1]; first compound 0.6325 µM)	relative viability ([1]; first compound 2 µM)	relative viability ([2]; first compound 0.02 µM)	relative viability ([2]; first compound 0.06325 µM)	relative viability ([2]; first compound 0.2 µM)	relative viability ([2]; first compound 0.6325 µM)	relative viability ([2]; first compound 2 µM)	relative viability (SGI-1776 + Pemetrexed; first compound 0.08 µM)	relative viability (SGI-1776 + Pemetrexed; first compound 0.8 µM)	relative viability (SGI-1776 + Pemetrexed; first compound 2.53 µM)	relative viability (SGI-1776 + Pemetrexed; first compound 8 µM)	relative viability (Entinostat + OSI-027; first compound 0.02 µM)	relative viability (Entinostat + OSI-027; first compound 0.06325 µM)	relative viability (Entinostat + OSI-027; first compound 0.2 µM)	relative viability (Entinostat + OSI-027; first compound 0.6325 µM)	relative viability (Entinostat + OSI-027; first compound 2 µM)
201T	0.994	1.1	1.02	1.11	0.97	1	1.01	1.05	0.981	0.97	0.325	0.339	0.348	0.301	0.92	0.726	0.619	0.548	0.45
A549						0.59	0.636	0.6	0.455	0.283									
A-427	0.981	1.02	0.945	0.91	0.652	1.08	1.14	1.08	0.901	0.673	1.01	1.05	0.944	0.897	0.505	0.489	0.403	0.395	0.343
ABC-1	0.311	0.315	0.288	0.298	0.302	0.724	0.93	0.713	0.635	0.538					0.446	0.524	0.544	0.351	0.247
BEN	0.961	0.738	0.764	0.761	0.711	0.953	0.94	1.05	0.941	0.569	0.806	0.811	0.712	0.615	0.271	0.353	0.323	0.302	0.217
CAL-12T	0.935	0.98	0.861	0.871	0.84	0.622	0.813	0.886	0.782	0.584	1.31	1.06	1.16	1.28	0.583	0.719	0.698	0.601	0.305
COR-L23	1.13	1.18	1.08	1.13	0.474	1.16	0.978	0.933	1.04	0.543	0.212	0.188	0.2	0.18	0.67	0.599	0.621	0.291	0.264
COR-L 105	0.655	0.872	0.657	0.66	0.474	0.984	1.03	0.822	0.905	0.672	1.06	1.14	1.11	1.09	0.735	0.875	0.977	0.688	0.297
Calu-6	1.1	1.18	0.919	0.957	0.806	0.943	1.14	0.975	0.9	0.527									
ChaGo-K-1	0.938	1.01	0.568	1.12	0.746						0.269	0.267	0.287	0.242	0.606	0.513	0.56	0.436	0.378
EBC-1	0.541	0.521	0.431	0.455	0.417	0.826	1.07	0.875	0.847	0.58									
EKVX	1.09	1.19	1.02	1.11	0.585	1.1	1.02	1.1	0.972	0.642	0.396	0.477	0.395	0.371	0.751	0.738	0.805	0.511	0.318
EMC-BAC-2	1.1	1.14	1.06	1	0.784	0.815	0.83	0.749	0.762	0.491	0.438	0.452	0.458	0.425	0.376	0.423	0.368	0.305	0.256
EPLC-272H	0.965	0.994	0.816	0.931	0.558	1.27	1.07	1.12	1.01	0.721	0.423	0.362	0.351	0.246	0.285	0.359	0.314	0.245	0.214
H3255	0.622	0.718	0.687	0.805	0.611	0.908	1.09	1.04	0.949	0.702	0.602	0.609	0.649	0.471	0.589	0.582	0.503	0.309	0.232
HARA	1.14	1.35	1.24	1	0.875	1.15	1.04	1.02	0.783	0.361	0.191	0.231	0.259	0.259	0.448	0.529	0.551	0.299	0.194
HCC-15	1.03	1.04	0.994	1.05	0.677	0.871	0.926	0.813	0.832	0.634	0.229	0.226	0.223	0.197	0.669	0.617	0.583	0.347	0.239
HCC-44	0.933	1	0.849	0.943	0.726	0.616	0.846	0.711	0.606	0.331	0.612	0.621	0.679	0.633	0.53	0.518	0.333	0.182	0.176
HCC-78	0.394	0.61	0.555	0.444	0.497	0.425	0.329	0.569	0.492	0.415	0.894	0.875	0.908	0.939	0.402	0.33	0.351	0.344	0.261
